Experimental data as given in ChEMBL document CHEMBL5120964, “Novel Antagonist of the Type 2 Lysophosphatidic Acid Receptor (LPA2), UCM-14216, Ameliorates Spinal Cord Injury in Mice” (J Med Chem, 2022).
Activity calls are given as the source filed them. The calls are words filed in the database; no cut-off is given here.

Columns and labels:
Mus musculus [1] = assay: Protection of spinal cord injury-induced locomotor defect in C57B1/6J mouse model assessed as increase in locomotor activity at 25 mg/kg, ip treated for 10 consecutive days; format: functional, organism-based
Mus musculus [2] = assay: Protection of spinal cord injury-induced locomotor defect in C57B1/6J mouse model assessed as frequent stepping at 25 mg/kg, ip treated 35 days after post injury for 10 consecutive days; format: functional, organism-based; details: time 35.0 day
[3] = Plasma concentration in C57B1/6J mouse at 25 mg/kg, ip measured after 0.5 hrs by HPLC-MS analysis
Mus musculus [4] = assay: Protection of spinal cord injury-induced locomotor defect in C57B1/6J mouse model assessed as increase in motor skills at 25 mg/kg, ip treated 35 days after post injury for 10 consecutive days; format: functional, organism-based; details: time 35.0 day
[5] = target: T1, Lysophosphatidic acid receptor 2 (Homo sapiens, UniProt Q9HBW0); assay: Antagonist activity at LPA2 receptor (unknown origin) expressed in cells assessed as blockade of LPA-induced calcium mobilization measured after 120 secs by Fluo-4 NW dye based assay; format: functional, cell-based
T1 sequence (Q9HBW0 whole entry): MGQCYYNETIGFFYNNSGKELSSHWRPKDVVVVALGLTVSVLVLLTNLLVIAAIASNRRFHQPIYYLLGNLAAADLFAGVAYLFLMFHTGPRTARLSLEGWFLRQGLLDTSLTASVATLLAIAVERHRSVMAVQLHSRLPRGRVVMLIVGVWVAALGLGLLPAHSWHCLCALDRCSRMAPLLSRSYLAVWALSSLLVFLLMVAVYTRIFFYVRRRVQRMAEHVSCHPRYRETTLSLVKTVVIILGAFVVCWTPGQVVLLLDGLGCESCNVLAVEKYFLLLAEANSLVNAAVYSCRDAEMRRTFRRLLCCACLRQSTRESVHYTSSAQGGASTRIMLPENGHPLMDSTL

[6] = Metabolic stability in human liver microsomes assessed as half life by HPLC-MS analysis; format: ADME, Microsome
[7] = target: T2, Lysophosphatidic acid receptor 3 (Homo sapiens) (UniProt Q9UBY5); assay: Antagonist activity at LPA3 receptor (unknown origin) expressed in cells assessed as maximal blockade of LPA-induced calcium mobilization at 10 uM measured after 120 secs by Fluo-4 NW dye based assay relative to control; format: functional, cell-based; details: filed as antagonist, time 120.0 sec
T2 sequence (whole entry): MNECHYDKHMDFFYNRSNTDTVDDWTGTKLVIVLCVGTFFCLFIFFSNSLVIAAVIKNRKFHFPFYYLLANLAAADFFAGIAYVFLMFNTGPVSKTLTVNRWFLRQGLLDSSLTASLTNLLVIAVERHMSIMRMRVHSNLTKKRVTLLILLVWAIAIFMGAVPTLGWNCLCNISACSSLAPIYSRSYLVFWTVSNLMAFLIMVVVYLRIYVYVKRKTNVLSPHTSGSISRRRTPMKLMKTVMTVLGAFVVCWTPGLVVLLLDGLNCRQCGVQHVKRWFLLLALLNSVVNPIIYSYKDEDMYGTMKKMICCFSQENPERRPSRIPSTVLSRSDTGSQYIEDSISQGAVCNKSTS

[8] = target: T1, Lysophosphatidic acid receptor 2; assay: Antagonist activity at LPA2 receptor (unknown origin) expressed in cells assessed as maximal blockade of LPA-induced calcium mobilization at 10 uM measured after 120 secs by Fluo-4 NW dye based assay relative to control; format: functional, cell-based; details: filed as antagonist, time 120.0 sec

## Cc1[nH]nc(-c2ccc(OCc3nnn[nH]3)cc2O)c1Oc1ccc(Cl)cc1Cl
Mus musculus [1]
  Activity: Active
Mus musculus [2]
  Activity: Active
[3]
  concentration at 0.5 h: 103000 ng/g
Mus musculus [4]
  Activity: Active

## Cc1[nH]nc(-c2ccc(OCc3nnn[nH]3)cc2O)c1Oc1ccc(F)cc1F
[5]
  IC50: 31 µM

## Cc1[nH]nc(-c2ccc(OCC(=O)O)cc2O)c1Oc1ccc(Cl)cc1Cl
[6]
  t1/2: 1.02 h

## Cc1noc(-c2ccc(OCC(=O)O)cc2O)c1Oc1ccc(Cl)cc1Cl
[7]
  Emax: 71%
[8]
  Emax: 58%
